17 compounds from patent US5925667A, “Pyrrolidine derivative, anti-ulcer drug, and antibacterial drug” (Shiseido Co., Ltd., priority 1997, dated 1999) can be followed below.

The structures appear in SMILES notation.

One data set relates to stress ulcer. Put plainly: WIS: Restraint and Water Immersion Stress-Induced Ulcer Inhibition Test. The following applies: rat, 100 mg/kg oral, 7 h water immersion stress; read-out: ulcer formation inhibitory rate (WIS). The data set is classed as in vivo, male Crj:SD or Slc:SD rats. Here is the method:
WIS: Restraint and Water Immersion Stress-Induced Ulcer Inhibition Test
The degree of inhibition of the stress ulcer formation is tested.
Male Crj:SD or Slc:SD rats (6 to 7-week-old) were fasted overnight, but allowed free access to water. Each group has 5 to 8 of these rats. The sample compound was dissolved or suspended in an aqueous solution of 0.3% sodium carboxymethylcellulose or 0.05% Tween 80 and then was orally administered (100 mg/10 ml/kg. To a control group, the vehicle was administered. 10 minutes later, the rats were placed in a stress cage and immersed to the level of xipfoid process in a water bath (21° C.) for 7 hours. At the end of the stress, the rats were sacrificed by inhalation of ether or carbon dioxide. Then, the stomach of each was removed, inflated by injecting 10 ml of 5% formalin neutral buffer solution, and immersed in 1% formalin neutral buffer solution for 30 minutes or more to be fixed. The stomach was incised along the greater curvature and then the length of each erosion in the glandular portion was determined under dissecting microscope. The sum of the length of erosions per stomach was defined as ulcer index (UI).
The effect obtained when 100 mg/kg of the sample compound had been administered was expressed as ulcer formation inhibitory rate (%) as follows:
ulcer formation inhibitory rate (%)=(1-(UI in sample group/UI in control group))×100

The subject of data set [1] is isolated gastric fundic gland. Briefly: CAP: Acid Secretion Inhibition Test In Vitro ([14C]-aminopyrine uptake test). To be noted: Oryctolagus cuniculus; final concentration 10^-5 M, histamine 10^-5 M; read-out: acid secretion inhibitory rate (CAP). The data set is classed as cell-based, male Japanese White rabbit. Here is the method: CAP: Acid Secretion Inhibition Test In Vitro
The acid secretion inhibitory activity in a cell level is studied. It can also be used for studying the mechanism of the effect.
ii-a) Preparation of isolated gastric fundus gland suspension
First, an isolated gastric fundic gland sample was prepared. Namely, a male Japanese White rabbit (2.5 to 3 kg) was anesthetized to death with Nembutal™ and then the abdomen was incised. Immediately thereafter, the stomach was removed and, after its pyloric and cardiac antrum were severed, incised along its greater curvature into two sheets. The gastric contents adhering to the mucosal surface was washed out with ice-cooled PBS (-) and then carefully washed therein. The gastric wall was spread on a cork board with its mucosal surface facing up and the feed and mucus thereon were completely removed with sterile gauze. The mucosa was separated therefrom by a spatula and then collected in ice-cooled PBS (-). After being washed twice with PBS (-), the mucosa was minced into 2-3 mm^3 pieces by scissors. These pieces were further washed twice with a nutrient solution. The nutrient solution comprises 132.4 mM of NaCl, 5.4 mM of KCl, 5 mM of Na2 HPO4.12H2 O, 1 mM of NaH2 PO4.2H2,
1.2 mM of MgSO4, 1 mM of CaCl2, 25 mM of HEPES, 2 mg/ml of glucose, and 1 mg/ml of BSA.
Into 70 ml of the nutrient solution containing 1 mg/ml of collagenase, minced mucosal pieces were dispersed and intensely stirred in a conical flask with a stirrer at 37° C. for 40 to 60 minutes. During this period, 100% O2 was sprayed on the nutrient solution surface and the pH was appropriately measured such that it was immediately adjusted to pH 7.4, when the value was therebelow, with a base. The nutrient solution was added to the reaction solution so as to attain the total amount of about 200 ml. After being filtered through a mesh, the suspension was divisionally introduced into 50 ml centrifuge tubes and left for 15 minutes such that gastric fundic gland was deposited. The supernatant was repeatedly removed by an aspirator, dispersed in the nutrient solution, and then left such that the gastric fundic gland was washed three times. At this time, without using a pipette, the suspension was alternately introduced into two centrifuge tubes so as to effect dispersion. The number of cells was counted under microscope and adjusted to 1.6×10^6 cells/ml.
ii-b) [^14 C]-aminopyrine uptake test.
Then, [^14 C]-aminopyrine uptake test was performed. After an Eppendorf tube was weighed, 10 μl (final concentration: 10^-5 M) of histamine dissolved in the above-mentioned nutrient solution, 10 μl (final concentration: 10^-5 M) of the test compound dissolved in DMSO, and 10 μl (final concentration: 0.05 μCi/ml) of [^14 C]-aminopyrine diluted with the nutrient solution were introduced therein and then 970 μl of the isolated gastric fundic gland suspension prepared above was added thereto. Subsequently, this mixture was shaken at 37° C. for 40 minutes at 125 cycles/minute. After being centrifuged for 30 seconds, 200 μl of its supernatant was collected into a mini-vial, while the rest was removed by an aspirator. The gland pellet was completely dried as the tube with its lid being opened was kept for one night in a drying oven at 80° C. and then the lid was closed and the weight was determined at room temperature. Then 100 μl of 1N KOH was added thereto and the tube with its lid being closed was treated at 60° C. for 1 to 2 hours so as to dissolve the pellet. Then, the contents thereof were transferred to a mini-vial. Into the mini-vial containing the supernatant or gland pellet, 4 ml of Atomlite™ was added and then the radioactivity was measured by a liquid scintillation counter. Here, after the radioactivity of the gland pellet was corrected by using a sample in which 20 mM of NaSCN was added so as to cancel the hydrogen ion concentration gradient, the integration ratio of aminopyrine specifically trapped by the gland pellet was calculated. […]

Data set [2] can be described thus: MTT: Cell Damaging and Protecting Effect Test. The data set is classed as cell-based, male Japanese White rabbit. The following applies: rabbit, gastric mucosa cells, final concentration 10^-4 M, smaller value is better, read-out: cell damaging rate (MTT). From the text: MTT: Cell Damaging and Protecting Effect Test
It is confirmed that there is no toxicity in cell level. Those having a toxicity in cell level are inappropriate as an anti-ulcer drug.
A male Japanese White rabbit (2.5 to 3 kg) was anesthetized to death by Nembutal™ and, immediately thereafter, its stomach was removed. The greater curvature of the stomach was incised so as to remove the stomach contents therefrom. After the mucosal surface was washed with HBSS (Hanks' Balanced Salt Solution), the stomach in ice-cooled HBSS was transferred to a laboratory. Then, after the pyloric antrum was removed, the gastric corpus mucosa was separated by a spatula and then minced into 2 to 3 mm^3 pieces in BME (Basal Medium Eagle). Thereafer, these pieces were shaken at 120 to 130 cycles/minute for 15 minutes at 37° C. in BME 60 ml containing 280 U/ml of dispase and 30 to 50 U/ml of collagenase. Here, the concentration of collagenase was appropriately changed for each lot in view of the state of cells. The pieces were washed twice with EBSS (Earle's Balanced Salt Solution) containing 1 mM of EDTA and then shaken in MEM (Minimum Essential Medium) containing 1 mM of EDTA at 37° C. for 5 minutes. Subsequently, they were shaken in the dispase and collagenase having the same concentrations as those mentioned above for 15 minutes so as to remove the supernatant and then further shaken at 37° C. for 50 to 60 minutes at 120 to 130 cycles/minute. Then, after being washed twice with HBSS, Ham F12 containing 2% of Ultrocer G™ was used to attain the concentration of 1×10^6 cells/ml. Thus formed suspension was dispensed in each well of a 96-well plate by 200 μl. The plate was incubated in the atmosphere composed of 5% CO2 and 95% air at 37° C. for three days so as to attain a confluent state and then subjected to MTT assay.
The sample compound was dissolved in DMSO so as to attain a concentration of 10^-2 M and then diluted with HBSS containing 2% of Ultrocer G™ so as to attain a final concentration of 10^-4 M. To each group, which 8 wells were used for, 10 μl of MTT reagent was added immediately after 100 μl of the medium in each well was exchanged for same volume of the resulting solution of the sample compound. After being incubated in an atmosphere composed of 5% CO2 and 95% air at 37° C. for 4 hours, thus formed solution was centrifuged and then its supernatant was discarded. Subsequently, 100 μl of 100% ethanol was added to the residue so as to dissolve MTT formazan. Then, the absorbance (OD: 570 to 630) was measured by a microplate reader. This method utilizes a phenomenon in which MTT is changed to MTT formazan only by mitochondria of living cells so as to change color.
The cell damaging or cell protecting effect of the sample compound at the final concentration of 10^-4 M was expressed as cell damaging rate (%) as follows:
cell damaging rate (%)=(1-(absorbance in sample group/absorbance in control group))×100
Accordingly, the smaller value is better in the cell damaging rate.

With `CCN1CCCC1CNC(=O)c1ccc(OC/C=C(\C)CCC=C(C)C)cc1` (stereo not shown) [Example 1, 1-ethyl-2-(4-geranyloxybenzoylaminomethyl)pyrrolidine], in the data set on stress ulcer, the inhibition in vivo at 100 mg/kg amounted to 80%.
Take `CCN1CCCC1CNC(=O)c1ccccc1OC/C=C(\C)CCC=C(C)C` (stereo not shown) [Example 2, 1-ethyl-2-(2-geranyloxybenzoylaminomethyl)pyrrolidine]: the inhibition in vivo at 100 mg/kg in the data set with stress ulcer was 85%. In data set [1], the inhibition at 10 µM turned out to be 99.7%. Further, the cytotoxicity at 4 h, 100 µM in data set [2] is 19%.
For the compound `CCN1CCCC1CNC(=O)c1ccc(OCC=C(C)C)cc1` (stereo not shown) [Example 3, 1-ethyl-2-(4-prenyloxybenzoylaminomethyl)pyrrolidine], the inhibition in vivo at 100 mg/kg in the data set on stress ulcer was 86%. For the same compound, in data set [1], the inhibition at 10 µM stood at 61%. The cytotoxicity at 4 h, 100 µM in data set [2] is -14%.
The matching figures for `CCN1CCCC1CNC(=O)c1ccc(OCC=C(C)C)cc1OCC=C(C)C` (stereo not shown) [Example 5, 1-ethyl-2-(2,4-diprenyloxybenzoylaminomethyl)pyrrolidine]: 70%, 100% and 9%.
Turning to `CCN1CCCC1CNC(=O)c1ccc(OC/C=C(\C)CCC=C(C)C)cc1OC/C=C(\C)CCC=C(C)C` (stereo not shown) [Example 9, 1-ethyl-2-(2,4-digeranyloxybenzoylaminomethyl)pyrrolidine], the inhibition in vivo at 100 mg/kg with stress ulcer is 66%.
Regarding `CCN1CCCC1CNC(=O)c1ccc(OC/C=C(\C)CCC=C(C)C)c(OC/C=C(\C)CCC=C(C)C)c1` (stereo not shown) [Example 11, 1-ethyl-2-(3,4-digeranyloxybenzoylaminomethyl)pyrrolidine], the inhibition in vivo at 100 mg/kg with stress ulcer turned out to be 75%.
Same read-out and setting: the same measure for `CCN1CCCC1CNC(=O)c1cc(OCC=C(C)C)c(OCC=C(C)C)c(OCC=C(C)C)c1` (stereo not shown) [Example 13, 1-ethyl-2-(3,4,5-triprenyloxybenzoylaminomethyl)pyrrolidine]: 57%.
Turning to `CCN1CCCC1CNC(=O)c1ccc(OC)c(OC/C=C(\C)CCC=C(C)C)c1` (stereo not shown) [Example 15, 1-ethyl-2-(3-geranyloxy-4-methoxybenzoylaminomethyl)pyrrolidine], the inhibition in vivo at 100 mg/kg in the data set on stress ulcer was found to be 91%. The cytotoxicity at 4 h, 100 µM in data set [2] came out at 2%.
The corresponding values for `CCN1CCCC1CNC(=O)c1ccc(OC)cc1OC/C=C(\C)CCC=C(C)C` (stereo not shown) [Example 18, 1-ethyl-2-(2-geranyloxy-4-methoxybenzoylaminomethyl)pyrrolidine] are 76% and 4%.
The matching figures for `CCN1CCCC1CNC(=O)c1cc(OC)ccc1OC/C=C(\C)CCC=C(C)C` (stereo not shown) [Example 19, 1-ethyl-2-(2-geranyloxy-5-methoxybenzoylaminomethyl)pyrrolidine]: 89% and 21%.
The corresponding values for `CCN1CCCC1CNC(=O)c1cc(F)ccc1OC/C=C(\C)CCC=C(C)C` (stereo not shown) [Example 20, 1-ethyl-2-(3-fluoro-6-geranyloxybenzoylaminomethyl)pyrrolidine] are 89% and 23%.
For `CCN1CCCC1CNC(=O)c1cc(OC)c(OC/C=C(\C)CCC=C(C)C)c(OC)c1` (stereo not shown) [Example 21, 1-ethyl-2-(3,5-dimethoxy-4-geranyloxybenzoylaminomethyl)pyrrolidine], the inhibition in vivo at 100 mg/kg in the data set on stress ulcer is 76%.
As to `CCN1CCCC1CNC(=O)c1cc(OC)c(OC)c(OC/C=C(\C)CCC=C(C)C)c1` (stereo not shown) [Example 22, 1-ethyl-2-(3,4-dimethoxy-5-geranyloxybenzoylaminomethyl)pyrrolidine], in the data set with stress ulcer, the inhibition in vivo at 100 mg/kg stood at 80%.
Consider `CCN1CCCC1CNC(=O)c1cc(OC)c(OCC=C(C)C)c(OC)c1` (stereo not shown) [Example 24, 1-ethyl-2-(3,5-dimethoxy-4-prenyloxybenzoylaminomethyl)pyrrolidine], for which, in the data set with stress ulcer, the inhibition in vivo at 100 mg/kg was determined as 79%. Besides, the cytotoxicity at 4 h, 100 µM in data set [2] was 12%.
The matching figures for `CCN1CCCC1CNC(=O)c1cccnc1OCC=C(C)C` (stereo not shown) [Example 25, 1-ethyl-2-(2-prenyloxynicotinoylaminomethyl)pyrrolidine]: 90% and -15%.
`CCN1CCCC1CNC(=O)c1ccc(OCC=C(C)C)nc1` (stereo not shown) [Example 26, 1-ethyl-2-(6-prenyloxynicotinoylaminomethyl)pyrrolidine]: in the data set on stress ulcer, the inhibition in vivo at 100 mg/kg came to 48%. Further, the cytotoxicity at 4 h, 100 µM in data set [2] is -8%.
As for `CCN1CCCC1CNC(=O)c1ccc(OC/C=C(\C)CCC=C(C)C)nc1` (stereo not shown) [Example 27, 1-ethyl-2-(6-gearnyloxynicotinoylaminomethyl)pyrrolidine], the inhibition in vivo at 100 mg/kg in the data set with stress ulcer came to 88%. Further, in data set [1], the inhibition at 10 µM is 81%.
